Assay [1] has as its target T1, recombinant human Lp-PLA2 (Homo sapiens, UniProt Q13093).
T1 sequence (Q13093 22-441): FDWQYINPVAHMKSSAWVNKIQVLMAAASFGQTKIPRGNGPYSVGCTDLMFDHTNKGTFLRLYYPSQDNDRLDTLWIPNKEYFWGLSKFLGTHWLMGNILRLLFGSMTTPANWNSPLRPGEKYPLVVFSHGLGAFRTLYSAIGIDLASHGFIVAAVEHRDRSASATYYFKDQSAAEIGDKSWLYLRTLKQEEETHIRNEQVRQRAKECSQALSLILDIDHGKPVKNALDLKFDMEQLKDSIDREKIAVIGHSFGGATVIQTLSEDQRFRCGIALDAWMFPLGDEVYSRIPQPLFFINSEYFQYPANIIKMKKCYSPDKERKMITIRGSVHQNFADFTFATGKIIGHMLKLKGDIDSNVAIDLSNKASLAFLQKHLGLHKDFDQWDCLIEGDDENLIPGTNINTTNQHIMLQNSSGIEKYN
The assay can be described thus: Recombinant human Lp-PLA2 assay (rhLp-PLA2, PED6 assay). The format is biochemical. From the text: (1) Recombinant Human Lp-PLA2 Assay (rhLp-PLA2) (Also Referred to as “PED6” Assay)
N-((6-(2,4-dinitrophenyl)amino)-hexanoyl)-2-(4,4-difluoro-5,7-dimethyl-4-bora-3a,4a-diaza-s-indacene-3-pentanoyl)-1-hexadecanoyl-sn-glycero-3-phosphoethanolamine, triethylammonium salt (PED6) is a commercially available fluorescently-labelled phospholipid, which is commercially available from Molecular Probes. There is a quenching […] position and a Bodipy fluorescein (FL) group in the sn2 position.
The PED6 assay was run as an unquenched 10 μL assay. Compounds source plate was prepared by making 1:3 (by volume) serial dilution of the compounds into pure DMSO on 384-well microplate. […] 5 μL of recombinant human Lp-PLA2 enzyme (2 nM rhLp-PLA2 in assay buffer of 50 mM HEPES, pH7.4, 150 mM NaCl, 1 mM CHAPS) was added to each well of the plate with compounds. Plates were centrifuged for 10 sec at 500 rpm. […] Plates were centrifuged for 10 sec at 500 rpm. Plate was covered to protect from light and incubated for 20 min at room temperature. […] PIC50 data, curve and QC analysis was conducted by using XL fit module in Excel.

Assay [2] has as its target T2, Lp-PLA2 from plasma (pooled human plasma) (Homo sapiens, UniProt Q13093).
T2 construct: 8 μL pooled human plasma; from tissue; host or cells: pooled human plasma
T2 sequence (Q13093 22-441): T1 sequence (Q13093 22-441)
Nature of the assay: Lp-PLA2 human plasma assay (Thio-PAF assay). It is filed as biochemical. Particulars: text thresholds, read-out: pIC50 values in the thio-PAF assay (converted). From the text: (3) Lipoprotein-Associated Phospholipase A2 (Lp-PLA2) Human Plasma Assay (Also Referred to as “Thio-PAF Assay”)
The human plasma assay utilizes a thioester analog of PAF (phosphatidylcholine), where hydrolysis yields to the formation of a phospholipid containing a free thiol group. The amount of thiol is quantitated continuously by reacting with CPM (7-diethylamino-3-(4′-maleimidylphenyl)-4-methylcoumarin), a maleimide which increases in fluoresence after Michael addition of thiols. This assay may detect the activity of Lp-PLA2 from plasma, as determined by specific inhibition by Lp-PLA2 inhibitors.
The thio-PAF assay was run as a quenched 15 μL assay. Compounds source plate was prepared by making 1:3 (by volume) serial dilution of the compounds into pure DMSO on 384-well microplate. 0.01 μL of compounds on compound source plate were transferred to 384 well Greiner 784076 (black) low-volume plates by ECHO liquid dispenser. 8 μL pooled human plasma, which was previously aliquoted and frozen, was added. Plates were centrifuged for 10 sec at 500 rpm. After 30 minutes preincubation, 2 μL of substrate (2.5 mM thio-PAF, 3.2 mM NEM (N-ethylmaleimide) [made fresh daily in DMSO], and 32 μM CPM [from a DMSO stock] in assay buffer of 50 mM HEPES, pH7.4, 150 mM NaCl, 1 mM CHAPS was added to 384 well Greiner 784076 (black) low-volume plates by BRAVO liquid handling station. Plates were centrifuged for 10 sec at 500 rpm. Plate was covered to protect from light and incubated for 2 min at room temperature. Reaction was quenched with 5 μL of 5% aqueous trifluoroacetic acid (TFA). Plates were covered to protect from light and incubated for 40 min at room temperature. Plates were read at ex: 380/em: 485 using-Envision microplate reader. PIC50 data, curve and QC analysis was conducted by using XLFit module in Excel.

Setting [3] is: text thresholds, upper limit for pIC50 in this assay is 9.3, read-out: pIC50 values in the PED6 assay (converted).
The mark [4] stands for this setting: upper limit for pIC50 obtained in this PED6 assay is 9.3, read-out: rhLp-PLA2 (PED6 assay) (pIC50) (converted).

These results are taken from patent US8637536B2, “Pyrimidinone compounds for use in the treatment of diseases or conditions mediated by Lp-PLA2” (Glaxo Group Limited, priority 2010, dated 2014).

SMILES strings stand for the structures. Structures can show the parent of a compound that is named as a salt. Where two headings read alike, the source gives them in different places.

Consider `COc1ncc(Cc2cn(C)c(SCc3ccc(Oc4ccc(Cl)c(C(F)(F)F)c4)cc3)nc2=O)cn1` [E75, 2-{[(4-{[4-chloro-3-(trifluoromethyl)phenyl]oxy}phenyl)methyl]thio}-1-methyl-5-{[2-(methyloxy)-5-pyrimidinyl]methyl}-4(1H)-pyrimidinone], for which the IC50 was at most 1 nM in assay [1] (setting [3]) and at most 100 nM in assay [2].

Take `COc1ncc(Cc2c[nH]c(SCc3ccc(Oc4ccc(Cl)c(C(F)(F)F)c4)c(C#N)c3)nc2=O)cn1` [E84, 2-{[4-chloro-3-(trifluoromethyl)phenyl]oxy}-5-{[(5-{[2-(methyloxy)-5-pyrimidinyl]methyl}-4-oxo-1,4-dihydro-2-pyrimidinyl)thio]methyl}benzonitrile]: the figures for the IC50 in assay [1] (setting [3]) and in assay [2] were at most 1 nM and at most 1000 nM, respectively.

On to `COc1ncc(Cc2cn(C)c(SCc3ccc(Oc4ccc(Cl)c(C(F)(F)F)c4)c(C#N)c3)nc2=O)cn1` [E85, 2-{[4-chloro-3-(trifluoromethyl)phenyl]oxy}-5-{[(1-methyl-5-{[2-(methyloxy)-5-pyrimidinyl]methyl}-4-oxo-1,4-dihydro-2-pyrimidinyl)thio]methyl}benzonitrile], for which the IC50 in assay [1] (setting [3]) is at most 1 nM; in assay [2] it was at most 100 nM.

In the case of `N#Cc1cc(CSc2nc(=O)c(Cc3cncnc3)c[nH]2)ccc1Oc1ccc(F)c(C(F)(F)F)c1` [E87, 2-{[4-fluoro-3-(trifluoromethyl)phenyl]oxy}-5-({[4-oxo-5-(5-pyrimidinylmethyl)-1,4-dihydro-2-pyrimidinyl]thio}methyl)benzonitrile], the IC50 was at most 1 nM in assay [1] (setting [3]) and at most 1000 nM in assay [2].

As for `COc1ncc(Cc2cn(C)c(SCc3ccc(Oc4ccc(F)c(C(F)(F)F)c4)c(C#N)c3)nc2=O)cn1` [E90, 2-{[4-fluoro-3-(trifluoromethyl)phenyl]oxy}-5-{[(1-methyl-5-{[2-(methyloxy)-5-pyrimidinyl]methyl}-4-oxo-1,4-dihydro-2-pyrimidinyl)thio]methyl}benzonitrile], the results for the IC50 in assay [1] (setting [3]) and in assay [2] were at most 1 nM and at most 100 nM, respectively.

As to `Cn1cc(Cc2cn(C)c(SCc3ccc(Oc4cc(Cl)ccn4)cc3)nc2=O)cn1` [E93, 2-[({4-[(4-chloro-2-pyridinyl)oxy]phenyl}methyl)thio]-1-methyl-5-[(1-methyl-1H-pyrazol-4-yl)methyl]-4(1H)-pyrimidinone], the IC50 in assay [1] (setting [3]) was at most 1 nM; in assay [2], at most 100 nM.

Take `Cn1cc(Cc2cn(C)c(SCc3ccc(Oc4cccc(C(F)(F)F)c4)c(C#N)c3)nc2=O)cn1` [E95, 5-(((1-methyl-5-((1-methyl-1H-pyrazol-4-yl)methyl)-4-oxo-1,4-dihydropyrimidin-2-yl)thio)methyl)-2-(3-(trifluoromethyl)phenoxy)benzonitrile, trifluoroacetic acid salt]: the values for the IC50 in assay [1] (setting [3]) and in assay [2] were at most 1 nM and at most 100 nM, respectively.

Take `Cn1cc(Cc2cncnc2)c(=O)nc1SCc1ccc(Oc2cccc(C(F)(F)F)c2)c(C#N)c1` [E97, 5-({[1-methyl-4-oxo-5-(5-pyrimidinylmethyl)-1,4-dihydro-2-pyrimidinyl]thio}methyl)-2-{[3-(trifluoromethyl)phenyl]oxy}benzonitrile]: the IC50 in assay [1] (setting [3]) is at most 1 nM; in assay [2], at most 100 nM.

Turning to `CCc1cn(CC)c(OCCc2ccc(Oc3ccc(Cl)c(C(F)(F)F)c3)cc2)nc1=O` [E130, 2-{[2-(4-{[4-chloro-3-(trifluoromethyl)phenyl]oxy}phenyl)ethyl]oxy}-1,5-diethyl-4(1H)-pyrimidinone], the IC50 in assay [1] (setting [4]) was 2.51 nM; in assay [2], at most 1000 nM.

As to `Cc1noc(Cc2c[nH]c(OCCc3ccc(Oc4ccc(Cl)c(C(F)(F)F)c4)cc3)nc2=O)n1` [E133, 2-{[2-(4-{[4-chloro-3-(trifluoromethyl)phenyl]oxy}phenyl)ethyl]oxy}-5-[(3-methyl-1,2,4-oxadiazol-5-yl)methyl]-4(1H)-pyrimidinone], the values for the IC50 in assay [1] (setting [3]), in assay [1] (setting [4]) and in assay [2] were at most 10 nM, 3.16 nM and at most 1000 nM, respectively.

On to `Cc1nnc(Cc2c[nH]c(OCCc3ccc(Oc4ccc(Cl)c(C(F)(F)F)c4)cc3)nc2=O)o1` [E134, 2-{[2-(4-{[4-chloro-3-(trifluoromethyl)phenyl]oxy}phenyl)ethyl]oxy}-5-[(5-methyl-1,3,4-oxadiazol-2-yl)methyl]-4(1H)-pyrimidinone], for which the values for the IC50 in assay [1] (setting [3]), in assay [1] (setting [4]) and in assay [2] were at most 10 nM, 2.51 nM and at most 100 nM, respectively.

`Cn1cc(Cc2cncnc2)c(=O)nc1OCCc1ccc(Oc2ccc(Cl)c(C(F)(F)F)c2)c(F)c1` [E141, 2-{[2-(4-{[4-chloro-3-(trifluoromethyl)phenyl]oxy}-3-fluorophenyl)ethyl]oxy}-1-methyl-5-(5-pyrimidinylmethyl)-4(1H)-pyrimidinone]: the figures for the IC50 in assay [1] (setting [3]) and in assay [2] were at most 1 nM and at most 100 nM, respectively.

Turning to `COc1ncc(Cc2c[nH]c(OCCc3ccc(Oc4cnc(C(F)(F)F)nc4)cc3)nc2=O)cn1` [E143, 5-{[2-(methyloxy)-5-pyrimidinyl]methyl}-2-{[2-(4-{[2-(trifluoromethyl)-5-pyrimidinyl]oxy}phenyl)ethyl]oxy}-4(1H)-pyrimidinone], the values for the IC50 in assay [1] (setting [3]) and in assay [2] were at most 10 nM and at most 1000 nM, respectively.

Take `Cc1ccc(Oc2ccc(CCOc3nc(=O)c(Cc4cncnc4)c[nH]3)cc2)cc1Cl` [E150, 2-[(2-{4-[(3-chloro-4-methylphenyl)oxy]phenyl}ethyl)oxy]-5-[pyrimidin-5-ylmethyl]-4(1H)-pyrimidinone]: the results for the IC50 in assay [1] (setting [3]) and in assay [2] were at most 1 nM and at most 100 nM, respectively.

Regarding `COc1ncc(Cc2c[nH]c(OCCc3ccc(Oc4ccc(C)c(Cl)c4)cc3)nc2=O)cn1` [E151, 2-[(2-{4-[(3-chloro-4-methylphenyl)oxy]phenyl}ethyl)oxy]-5-{[2-(methyloxy)-5-pyrimidinyl]methyl}-4(1H)-pyrimidinone], the results for the IC50 in assay [1] (setting [3]) and in assay [2] were at most 1 nM and at most 100 nM, respectively.

As for `Cc1ncc(Cc2c[nH]c(NCCc3ccc(Oc4ccc(C(F)(F)F)c(Cl)c4)cc3)nc2=O)cn1` [E207, 2-{2-[4-(3-chloro-4-trifluoromethyl-phenoxy)-phenyl]ethylamino}-5-(2-methyl-pyrimidin-5-ylmethyl)-1H-pyrimidin-4-one], in assay [2], the IC50 is at most 1000 nM.

Consider `Cc1ncc(Cc2c[nH]c(NCCc3ccc(Oc4ccc(C(F)(F)F)cn4)cc3)nc2=O)cn1` [E208, 5-(2-methyl-pyrimidin-5-ylmethyl)-2-{2-[4-(5-trifluoromethyl-pyridin-2-yloxy)phenyl]ethylamino}-1H-pyrimidin-4-one], for which the IC50 in assay [2] is at most 1000 nM.

`O=c1ncc(Cc2c[nH]c(NCCc3ccc(Oc4ccc(Cl)c(C(F)(F)F)c4)cc3)nc2=O)c[nH]1` [E209, 2-{2-[4-(4-chloro-3-trifluoromethyl-phenoxy)-phenyl]ethylamino}-5-(2-oxo-1,2-dihydro-pyrimidin-5-ylmethyl)-1H-pyrimidin-4-one]: the IC50 in assay [2] is at most 1000 nM.

Consider `Cc1ncc(Cc2c[nH]c(NCCc3ccc(Oc4ccc(Cl)c(C(F)(F)F)c4)c(C#N)c3)nc2=O)cn1` [E211, 2-(4-Chloro-3-trifluoromethyl-phenoxy)-5-{2-[5-(2-methyl-pyrimidin-5-ylmethyl)-4-oxo-1,4-dihydro-pyrimidin-2-ylamino]-ethyl}-benzonitrile], for which, in assay [2], the IC50 is at most 1000 nM.
